Structures are written as SMILES.

The test system of one assay is calvaria. The assay is described as follows: Inhibition of bone resorption (45Ca release from calvaria stimulated with hPTH (1-34), method of Raisz). To be noted: 45Ca release, 50 nM hPTH (1-34), 3 days incubation; test concentrations 0.04, 0.2 and 1 μM; mean of 4 pairs; read-out: IC50 (inhibition of bone resorption). Format: cell-based, new born ICR mouse.
Description: The determination of the inhibitory action on the bone resorption was basically in accordance with the method of Raisz [J. Clin. Invest. vol.
A new born ICR mouse (one or two days old) was intraperitoneally administered with 1.5μ Ci ^45 Ca (isotope of calcium as CaCl2 solution) and calvaria was aseptically removed the next day. The calvaria was split into two along the central suture line, and one of them was used as a control and the other was used as a test compound. The calvaria was preincubated at 37° C. for 2 days in BGJb medium [0.5 ml, Fitton-Jackson modification, GIBCO Laboratories, USA, containing bovine serum albumin 1 mg/ml] added with a test compound to the concentrations of 0.04 μM, 0.2 μM and 1 μM and then in the above-mentioned medium containing 50 nM hPTH (1-34) for further 3 days. After the incubation, the ^45 Ca radioactivity in the medium and the bone was determined, and the proportion (%) of ^45 Ca released from the bone into the medium was calculated by the following formula.
Using the bone obtained from the same mouse and treated in the same manner without adding a test compound, as a control, the proportion (%) relative to the control group was determined according to the following formula.
Consider `COc1ccc(CN2N=C(c3ccc(Cl)cc3)c3ccccc3-n3c(C)nnc32)cc1` [Example 77, 6-(4-Chlorophenyl)-4-(4-methoxybenzyl)-1-methyl-4H-2,3,4,5,10b-pentaazabenz[e]azulene], for which the IC50 is 0.12 µM.

On to `Cc1nnc2n1-c1ccccc1C(c1ccc(Cl)cc1)=NN2Cc1cccnc1` [Example 98, 6-(4-Chlorophenyl)-1-methyl-4-(pyridin-3-ylmethyl)-4H-2,3,4,5,10b-pentaazabenz[e]azulene], for which the IC50 was 0.54 µM.

The same assay, now with this note: Mus musculus, 72 h, read-out: IC50 (inhibition of bone resorption).
In the case of `Cc1nnc2n1-c1ccccc1C(c1ccc(Cl)cc1)=NN2Cc1ccc(F)cc1` [Example 59, 6-(4-Chlorophenyl)-4-(4-fluorobenzyl)-1-methyl-4H-2,3,4,5,10b-pentaazabenz[e]azulene], the IC50 worked out at 0.68 µM.

Consider `C=C(Br)CN1N=C(c2ccc(Cl)cc2)c2ccccc2-n2c(C)nnc21` [Example 113, 4-(2-Bromo-2-propenyl)-6-(4-chlorophenyl)-1l-methyl-4H-2,3,4,5,10b-pentaazabenz[e]azulene], for which the IC50 worked out at 0.5 µM.

As for `Cc1nnc2n1-c1ccc(Cl)cc1C(c1ccccc1)=NN2Cc1ccncc1` [Example 126, 8-Chloro-1-methyl-6-phenyl-4-(pyridin-4-ylmethyl)-4H-2,3,4,5,10b-pentaazabenz[e]azulene], the IC50 is 0.53 µM.

Staying with this assay, now noted: Mus musculus, 72 h; 45Ca release, 50 nM hPTH (1-34), 3 days incubation; test concentrations 0.04, 0.2 and 1 μM; mean of 4 pairs; read-out: IC50 (inhibition of bone resorption).
For `COc1ccc(CN2N=C(c3ccc(Cl)cc3)c3ccccc3-n3c(C)nnc32)cc1` [Example 40, 6-(4-Chlorophenyl)-4-(4-methoxybenzyl)-1-methyl-4H-2,3,4,5,10b-pentaazabenz[e]azulene], the IC50 is 0.12 µM.

Consider `COc1ccc(CN2N=C(c3ccc(Cl)cc3)c3ccccc3-n3c(C)nnc32)cc1OC` [Example 41, 6-(4-Chlorophenyl)-4-(3,4-dimethoxybenzyl)-1-methyl-4H-2,3,4,5,10b-pentaazabenz[e]azulene], for which the IC50 amounted to 0.8 µM.

For `COc1ccc(CN2N=C(c3ccc(C)cc3)c3ccccc3-n3c(C)nnc32)cc1` [Example 46, 4-(4-Methoxybenzyl)-1-methyl-6-(4-methylphenyl)-4H-2,3,4,5,10b-pentaazabenz[e]azulene], the IC50 worked out at 0.42 µM.

Turning to `Cc1nnc2n1-c1ccccc1C(c1ccc(Cl)cc1)=NN2Cc1cccc(C#N)c1` [Example 56, 6-(4-Chlorophenyl)-4-(3-cyanobenzyl)-1-methyl-4H-2,3,4,5,10b-pentaazabenz[e]azulene], the IC50 is 0.25 µM.

In the case of `Cc1nnc2n1-c1ccccc1C(c1ccc(Cl)cc1)=NN2Cc1ccccc1F` [Example 57, 6-(4-Chlorophenyl)-4-(2-fluorobenzyl)-1-methyl-4H-2,3,4,5,10b-pentaazabenz[e]azulene], the IC50 was found to be 0.72 µM.

As for `Cc1nnc2n1-c1ccccc1C(c1ccc(Cl)cc1)=NN2Cc1cccc(F)c1` [Example 58, 6-(4-Chlorophenyl)-4-(3-fluorobenzyl)-1-methyl-4H-2,3,4,5,10b-pentaazabenz[e]azulene], the IC50 came out at 0.43 µM.

`Cc1nnc2n1-c1ccccc1C(c1ccc(Cl)cc1)=NN2Cc1cc(F)ccc1F` [Example 61, 6-(4-Chlorophenyl)-4-(2,5-difluorobenzyl)-1-methyl-4H-2,3,4,5,10b-pentaazabenz[e]azulene]: the IC50 came to 0.81 µM.

Take `Cc1nnc2n1-c1ccccc1C(c1ccc(Cl)cc1)=NN2Cc1cc(F)cc(F)c1` [Example 62, 6-(4-Chlorophenyl)-4-(3,5-difluorobenzyl)-1-methyl-4H-2,3,4,5,10b-pentaazbenz[e]azulene]: the IC50 stood at 0.71 µM.

On to `Cc1nnc2n1-c1ccccc1C(c1ccc(Cl)cc1)=NN2Cc1ccc(F)c(F)c1` [Example 63, 6-(4-Chlorophenyl)-4-(3,4-difluorobenzyl)-1-methyl-4H-2,3,4,5,10b-pentaazabenz[e]azulene], for which the IC50 worked out at 0.74 µM.

On to `Cc1nnc2n1-c1ccccc1C(c1ccc(Cl)cc1)=NN2Cc1cccc([N+](=O)[O-])c1` [Example 68, 6-(4-Chlorophenyl)-1-methyl-4-(3-nitrobenzyl)-4H-2,3,4,5,10b-pentaazabenz[e]azulene], for which the IC50 amounted to 0.33 µM.

As to `Cc1nnc2n1-c1ccccc1C(c1ccc(Cl)cc1)=NN2Cc1cccc(Cl)c1` [Example 70, 4-(3-Chlorobenzyl)-6-(4-chlorophenyl)-1-methyl-4H-2,3,4,5,10b-pentaazabenz[e]azulene], the IC50 is 0.64 µM.

As to `Cc1nnc2n1-c1ccccc1C(c1ccc(Cl)cc1)=NN2Cc1ccc(C#N)cc1` [Example 74, 6-(4-Chlorophenyl)-4-(4-cyanobenzyl)-1-methyl-4H-2,3,4,5,10b-pentaazabenz[e]azulene], the 50% inhibitory concentration (IC50) was 0.43 µM.

Turning to `COc1cccc(CN2N=C(c3ccc(Cl)cc3)c3ccccc3-n3c(C)nnc32)c1` [Example 76, 6-(4-Chlorophenyl)-4-(3-methoxybenzyl)-1-methyl-4H-2,3,4,5,10b-pentaazabenz[e]azulene], the IC50 amounted to 0.56 µM.

As for `COc1cc(CN2N=C(c3ccc(Cl)cc3)c3ccccc3-n3c(C)nnc32)cc(OC)c1OC` [Example 79, 6-(4-Chlorophenyl)-1-methyl-4-(3,4,5-trimethoxybenzyl)-4H-2,3,4,5,10b-pentaazabenz[e]azulene], the IC50 was determined as 0.57 µM.

On to `Cc1nnc2n1-c1ccccc1C(c1ccc(Cl)cc1)=NN2Cc1ccc2c(c1)OCO2` [Example 81, 6-(4-Chlorophenyl)-1-methyl-4-(3,4-methylenedioxybenzyl)-4H-2,3,4,5,10b-pentaazabenz[e]azulene], for which the IC50 turned out to be 0.59 µM.

Take `COc1ccc(CN2N=C(c3ccc(Cl)cc3)c3ccccc3-n3c(C)nnc32)cc1[N+](=O)[O-]` [Example 84, 6-(4-Chlorophenyl)-4-(4-methoxy-3-nitrobenzyl)-1-methyl-4H-2,3,4,5,10b-pentaazabenz[e]azulene]: the IC50 is 0.67 µM.

For `COc1ccc(CN2N=C(c3ccc(Cl)cc3)c3ccccc3-n3c(C)nnc32)cc1Cl` [Example 85, 4-(3-Chloro-4-methoxybenzyl)-6-(4-chlorophenyl)-1-methyl-4H-2,3,4,5,10b-pentaazabenz[e]azulene], the IC50 turned out to be 0.86 µM.

For `Cc1cccc(CN2N=C(c3ccc(Cl)cc3)c3ccccc3-n3c(C)nnc32)c1` [Example 88, 6-(4-Chlorophenyl)-1-methyl-4-(3-methylbenzyl)-4H-2,3,4,5,10b-pentaazabenz[e]azulene], the IC50 was found to be 0.59 µM.

For `Cc1nnc2n1-c1ccccc1C(c1ccc(Cl)cc1)=NN2Cc1ccccc1` [Example 94, 4-Benzyl-6-(4-chlorophenyl)-1-methyl-4H-2,3,4,5,10b-pentaazabenz[e]azulene], the IC50 is 0.56 µM.

As for `Cc1nc(CN2N=C(c3ccc(Cl)cc3)c3ccccc3-n3c(C)nnc32)cs1` [Example 100, 6-(4-Chlorophenyl)-4-(2-methyl-1,3-thiazol-4-ylmethyl)-1-methyl-4H-2,3,4,5,10b-pentaazabenz[e]azulene], the IC50 stood at 0.71 µM.

As to `Cc1nnc2n1-c1ccccc1C(c1ccc(Cl)cc1)=NN2CC1CC1` [Example 106, 6-(4-Chlorophenyl)-4-cyclopropylmethyl-1-methyl-4H-2,3,4,5,10b-pentaazabenz[e]azulene], the IC50 came out at 0.83 µM.

Take `C=C(C)CN1N=C(c2ccc(Cl)cc2)c2ccccc2-n2c(C)nnc21` [Example 111, 6-(4-Chlorophenyl)-1-methyl-4-(2-methyl-2-propenyl)-4H-2,3,4,5,10b-pentaazabenz[e]azulene]: the IC50 came out at 0.51 µM.

As for `C=C(Cl)CN1N=C(c2ccc(Cl)cc2)c2ccccc2-n2c(C)nnc21` [Example 112, 6-(4-Chlorophenyl)-4-(2-chloro-2-propenyl)-1l-methyl-4H-2,3,4,5,10b-pentaazabenz[e]azulene], the IC50 came out at 0.38 µM.

Turning to `Cc1nnc2n1-c1ccccc1C(c1ccc(Cl)cc1)=NN2Cc1ccncc1` [Example 120, 6(4-Chlorophenyl)-1-methyl-4-(pyridin-4-ylmethyl)-4H-2,3,4,5,10b-pentaazabenz[e]azulene], the IC50 amounted to 0.22 µM.

Turning to `Cc1nnc2n1-c1ccccc1C(c1ccc(Cl)cc1)=NN2Cc1ccc(S(C)(=O)=O)cc1` [Example 121, 6-(4-Chlorophenyl)-1-methyl-4-(4-methylsulfonylbenzyl)-4H-2,3,4,5,10b-pentaazabenz[e]azulene], the IC50 is 0.14 µM.

On to `Cc1nnc2n1-c1ccccc1C(c1ccc(Cl)cc1)=NN2Cc1ccc([N+](=O)[O-])cc1` [Example 122, 6-(4-Chlorophenyl)-1-methyl-4-(4-nitrobenzyl)-4H-2,3,4,5,10b-pentaazabenz[e]azulene], for which the IC50 came out at 0.72 µM.

As to `Cc1nnc2n1-c1ccccc1C(c1ccc(Cl)cc1)=NN2Cc1cc(Cl)nc(Cl)c1` [Example 123, 6-(4-Chlorophenyl)-4-(2,6-dichloropyridin-4-ylmethyl)-1-methyl-4H-2,3,4,5,10b-pentaazabenz[e]azulene], the IC50 came out at 0.65 µM.

`Cc1nnc2n1-c1ccccc1C(c1ccccc1)=NN2Cc1cccnc1` [Example 128, 1-Methyl-6-phenyl-4-(pyridin-3-ylmethyl)-4H-2,3,4,5,10b-pentaazabenz[e]azulene]: the IC50 stood at 0.93 µM.

Consider `Cc1nnc2n1-c1ccccc1C(c1ccccc1)=NN2Cc1ccncc1` [Example 129, 1-Methyl-6-phenyl-4-(pyridin-4-ylmethyl)-4H-2,3,4,5,10b-pentaazabenz[e]azulene], for which the IC50 was determined as 0.78 µM.

Regarding `Cc1nnc2n1-c1ccc([N+](=O)[O-])cc1C(c1ccccc1)=NN2Cc1ccncc1` [Example 134, 1-Methyl-8-nitro-6-phenyl-4-(pyridin-4-ylmethyl)-4H-2,3,4,5,10b-pentaazabenz[e]azulene], the IC50 came out at 0.18 µM.

For `Cc1ccc(C2=NN(Cc3ccncc3)c3nnc(C)n3-c3ccccc32)cc1` [Example 135, 1-Methyl-6-(4-methylphenyl)-4-(pyridin-4-ylmethyl)-4H-2,3,4,5,10b-pentaazabenz[e]azulene], the IC50 was determined as 0.41 µM.

`Cc1ccc(C2=NN(Cc3cccc(C#N)c3)c3nnc(C)n3-c3ccccc32)cc1` [Example 136, 4-(3-Cyanobenzyl)-1-methyl-6-(4-methylphenyl)-4H-2,3,4,5,10b-pentaazabenz [e]azulene]: the IC50 was determined as 0.59 µM.

Broadly, the IC50 is the concentration needed to halve the response being measured.
